# Reference: US20250069757A1, “METHOD OF PREDICTING ADAS-COG SCORE” (WisTa Laboratories Ltd., priority 2021, published 2025)
# Key:
# [1] = system: Alzheimer's disease; settings: cited from earlier work
# [2] = system: Alzheimer's disease; assay: phase III clinical trials (TRx-237-005 and TRx-237-015) for Alzheimer's disease; type: in vivo, patients; settings: 8, 150, 200 or 250 mg/day; both trials
# From the text: Data from a phase III clinical trials (TRx-237-005 and TRx-237-015) for Alzheimer's disease was obtained. These clinical trials involved 1162 patients. Before the trials began, each patient's baseline measurements were collected, which included the patient's sex, age, baseline ADAS-Cog and mini-mental state examination (MMSE) score.
# Patients were subsequently categorised into those with ‘low’ and ‘high’ plasma levels using a threshold based on the lower limit of quantitation of the assay on Day 1. […] Additionally, each patient entered the trial either already using the standard care of therapy or not. This yielded D=4 possible combinations: “low-using”, “low-none”, “high-using” and “high-none”. The trial spanned 5 visits with 13 weeks in between each visit. At each visit t, every patient i's progressive ADAS-Cog score, Yti∈ ? , was measured and recorded.
# [3] = group with 'high' plasma levels, threshold based on lower limit of quantitation of the assay on Day 1
compound,measurement,setting,value
CN(C)c1ccc2c(c1)Sc1cc(N(C)C)ccc1N2.CS(=O)(=O)O.CS(=O)(=O)O [LMTM],concentration-response relationships for steady-state plasma levels,[1]; 8 mg/day range,steep concentration-response relationships
same,differences in brain atrophy,[1]; [3],highly significant differences
same,differences in cognitive decline,[1]; [3],highly significant differences
same,dose-response,[2],lack of dose-response
